Assay results taken from ChEMBL document CHEMBL1150621, “Two new triterpenoids from Azadirachta indica and their insecticidal activity” (2002).
In brackets after ≈: the same amount, converted by molar mass.

Test system: Anopheles stephensi
Experiment: Insecticidal activity against fourth instar larvae of Anopheles stephensi assessed as mortality after 24 hrs
Format: functional

Work on `CC(=O)O[C@@H]1[C@H](O)[C@H]2C(C)(C)C(=O)C=C[C@]2(C)[C@H]2CC[C@]3(C)C(=CC[C@H]3C3=COCC3)[C@]12C` yielded an LC50 of 60 µg/mL (≈ 132 µM).
Molecule `CC(=O)O[C@@H]1[C@H](O)[C@H]2C(C)(C)C(=O)C=C[C@]2(C)[C@H]2CC[C@@]3(C)CC(=O)C=C3[C@]12C` has an LC50 of 43 µg/mL (≈ 107 µM).
